Entries after “also recorded” stand apart in the source; their conditions may differ.
What was measured:
[1] = tested on: PEPvIII epitope (EGFRvIII); assay: PEPvIII-specific IgG antibody titers in sera after subcutaneous immunization (ELISA); assay type: in vivo, C57BL/6 mice; settings: for PEPvIII-specific IgG antibody response: s.c. primary injection week 0 (2×10^−3 M PEPvIII epitope, 100 μL), half-dose boosts weeks 4 and 7, sera over 18 weeks
Procedure: Vaccine Preparation: To prepare PEPvIII-Coil29 peptide fibers solutions for immunization, the lyophilized peptides were first dissolved in 10×10^−3 M sterile acetate buffer (pH 4) at 8×10^−3 M and incubated overnight at […]. The peptide solutions were subsequently diluted to 2×10^−3 M in 1×PBS, and incubated 3 h at room temperature prior to immunization. For coassembled peptide fiber formation, PEPvIII-Coil29 and PADRE-Coil29 were weight out separately, and mixed on vortex for 5 mins before dissolved in 10×10^−3 M sterile acetate buffer (pH 4), and diluted in the same procedure as PEPvIII-Coil29 nanofiber preparation. To prepare CFA/IFA peptide emulsion for immunization, PEPvIII peptide was initially dissolved in 4×10^−3 M in sterile water, and equal volume of adjuvant solution was mixed in with peptide solution and vortexed for 45 min to bring the final concentration of peptide to 2×10^−3 M for injection.
Mice and Immunizations: Female 057B1/6 mice were purchased from Harlan laboratory and housed at the animal facility at the University of Chicago and Duke University. All procedures were approved by both the University of Chicago Institutional Animal Care and Use Committee (protocol 71-900) and the Duke Institutional Animal Care and Use Committee (protocol A314-15-12 19N). Mice (6-12 weeks old; age-matched within each experiment) were randomly assigned in groups of five for each condition based on previous findings that this size was sufficient to distinguish responding versus nonresponding groups. Anesthetized mice were immunized subcutaneously with the indicated solutions (2×50 μL at the shoulders) and boosted where indicated with half-doses (2×25 μL) after 4 weeks and 7 weeks. Sera were collected from the submandibular (cheek) vein for analysis via ELISA. Mice were sacrificed 7 d after the final immunization, and the cells from the draining lymph nodes (axillary, brachial, and inguinal) were collected.
ELISA for Serum Antibodies: Serum was analyzed for antigenspecific Ig (Anti-IgG (H+L), Jackson Immuno Research, Cat #115-035-003) or IgG (gamma-specific, #115-035-071) by ELISA, as previously described (Egelman, E. H., et al. Structure 2015, 23, 280-28). To detect E214-specifi c antibodies, the plate was coated with 5 μg/mL E214-ahx-C (provided by Merck) in PBS or with 5 μg/mL streptavidin (Sigma #85878) followed by 10 μg/mL E214-PEG-biotin in PBS. […]
Peptides were synthesized by solid phase peptide synthesis by methods known in the art. […] Antibody titers were determined using ELISA.
We subsequently investigated the immunogenicity of the Coil29 peptide platform. […] Sera were collected from all the groups at predesignated dates over 18 weeks, and analyzed for peptide-specific antibody titers via ELISA (FIG. 9). […]

[2] = tested on: SGSG-Coil29 peptide; assay: IgG antibody response against the carrier SGSG-Coil29 sequence (ELISA); assay type: in vivo, C57BL/6 mice; settings: boosts weeks 4 and 7
Procedure: Two boost containing half the primary immunization doses were given on week 4 and week 7 for both groups. Sera were collected to measure the IgG production against SGSG-Coil29 peptide using ELISA.
Antibody responses against the carrier (SGSG Coil29 sequence) were also measured by ELISA for both PEPvIII-Coil29 group and PEPvIII-Coil29/PADRE-Coil29 group (FIG. 4).
We subsequently investigated the immunogenicity of the Coil29 peptide platform. Four groups of C57BL/6 mice were immunized subcutaneously with same amount of epitope peptides (2×10^−3M of PEPvIII epitopes, 100 μL per mouse) on week 0, and boosted twice with half of the primary doses (2×10^−3M of PEPvIII epitopes, 50 μL per mouse) at weeks 4 and 7. Mice primed with an emulsion of PEPvIII with complete Fruend's adjuvant (CFA), and boosted with PEPvIII and incomplete Fruend's adjuvant (IFA) served as a positive control. Sera were collected from all the groups at predesignated dates over 18 weeks, and analyzed for peptide-specific antibody titers via ELISA (FIG. 9). […] Strikingly, the second boost at week 7 elevated the antibody titer nearly 100-fold, with the highest titer level reaching about 10^5 at week 9. […] The considerable difference in antibody response between P-C and P-C/P groups underlined the importance of the T cell epitope (PADRE) in promoting antibody responses with the Coil29 platform. […]

[3] = tested on: splenocytes; assay: T-cell ELISPOT (IL-4, IFNγ) on splenocytes of immunized mice; assay type: cell-based, C57BL/6 mice
Procedure: T-Cell ELIspot: T-cell ELIspots were performed as described. Briefly, 0.25 million cells from the spleen were plated in each well of a 96-well ELIspot plate (Millipore, MSIPS4510), in 200 μL per well. The cells were then stimulated with peptide or left untreated as negative controls. […] Streptavidinalkaline phosphatase (3310-10) was purchased from Mabtech. Spots were developed using substrate Sigmafast BCIP/NBT (Sigma, B5655). Plates were imaged and enumerated using an ELISPOT reader (Cellular Technology, Ltd).
We further analyzed how the PADRE epitope dosing could impact the humoral response in the current platform (FIG. 10). Four groups of mice were immunized with Coil29 nanofibers formulated with different PADRE epitope concentrations ranging from 0 to 0.5×10^−3M in final concentration, and the PEPvIII-specific total IgG titers were monitored over 17 weeks (FIG. 10A). […] However, the difference in antibody response in relationship with PADRE dosing could possibly be caused by several reasons, including the use of a different B cell epitope. We are currently investigating the mechanism of this observation. It highlighted the significance in future application where the formulation of nanofibers should be fine-tuned for different epitopes induce optimal response. […]

[4] = tested on: dendritic cells (CD11c+MHCII+F4/80−); assay: Uptake of TAMRA labelled peptides by dendritic cells in vivo (flow cytometry of peritoneal lavage fluid); design: species or system C57BL/6 mice; settings: TAMRA labelled peptide, i.p. injection, peritoneal lavage 20 h after injection
Procedure: (§1) Antibodies and Flow Cytometry: Antibodies were purchased from eBioscience unless specified. Flow cytometry was performed using LSRII blue (BD). FlowJo (Tree Star Inc.) was used in the analysis of flow data. For analysis of cell recruitment to the peritoneal cavity, cells isolated from i.p. lavage fluid were stained and analyzed as described.
(§2) To examine whether the epitope-bearing nanofibers could be internalized by APCs, C57BL/6 mice were immunized via i.p. injection with 1×PBS, or PEPvIII or P-C peptides fluorescently labelled with TAMRA (FIG. 8). […] The peritoneal lavage fluid was collected 20 h after injections, to analyze for the percentage of TAMRA positive DCs (CD11c^+MHCII^+F4/80^−) and MΦ (CD11c^−F4/80^+) using flow cytometry (FIG. 18).

[5] = tested on: macrophages (CD11c−F4/80+); assay: Uptake of TAMRA labelled peptides by macrophages in vivo (flow cytometry of peritoneal lavage fluid); design: species or system C57BL/6 mice; settings: TAMRA labelled peptide, i.p. injection, peritoneal lavage 20 h after injection
Procedure: as §1, §2

Row | Substance | PEPvIII-specific total IgG titers, PADRE dosing study ([1]; PADRE 0 or 0.05×10^−3 M final concentration, monitored over 17 weeks) | PEPvIII-specific IgG antibody response [1] | PEPvIII-specific IgG antibody response ([1]; listed as PEPvIII-Coil29) | IgG antibody response against SGSG-Coil29 [2] | IgG antibody response against SGSG-Coil29 ([2]; listed as PEPvIII-Coil29) | T cell IFNγ and IL4 response (ELISPOT) ([3]; splenocytes collected on week 18, stimulated with PADRE or PEPvIII peptide) | percentage of TAMRA positive dendritic cells [4] | percentage of TAMRA positive macrophages [5] | concentration above which the ELISPOT response saturated ([3]; preliminary experiments)
1 | NH2-LEEKKGNYVVTDH SGSG QARILEADAEILRAYARILEAHAEILRAQ-Amide (H-LEEKKGNYVVTDHSGSGQARILEADAEILRAYARILEAHAEILRAQ-NH2) [P-C] | negligible levels of IgG | unable to raise a significant level of epitope-specific IgG antibody titer | very weak responses | gradually diminished to a negligible level after the total IgG titers peaked at week 9 | self-limiting, returning to baseline levels after 16 weeks | responded to neither PADRE peptide nor PEPvIII peptide |  |  | 
2 | NH2-LEEKKGNYVVTDH-Amide [PEPvIII, reference compound] |  | did not elicit antibody responses; also recorded: failed to elicit any antibody response |  |  |  |  | statistically indistinguishable from the 1×PBS negative control group | statistically indistinguishable from the 1×PBS negative control group | 
3 | NH2-aKXVAAVVTLKAa-Amide [PADRE, reference compound] |  |  |  |  |  |  |  |  | above 0.5×10^−6 M

Reference: patent publication US11246924B2, “Alpha-helical peptide nanofibers as a self-adjuvanting vaccine platform” (Duke University, priority 2016, dated 2022)
